The results in this text go back to US9144594B2, “Cathepsin L mediated diseases and associated methods and products” (University of Miami, priority 2005, dated 2015).

Assay [1] deals with dynamin-dynamin interactions. Kind of assay: FLIM analysis of dynamin-dynamin interactions (self-assembly) in podocytes. The assay is classed as cell-based, mouse. The conditions noted are these: for dynamin self-assembly by FLIM, in words: podocytes pretreated. As to the method: In one embodiment the cell-based assay to monitor dynamin-dynamin interactions is performed on a cultured mouse podocyte cell line and the readout of dynamin self-assembly using fluorescence lifetime imaging microscopy (FLIM). FLIM is based on the fluorescence resonance energy transfer (FRET) between the donor and acceptor that shortens the lifetime of the donor if the acceptor distance is within ≈100 Å (10 nm). […] The assay is based on overexpressing dynamin in podocytes, and subsequently staining fixed cells with monoclonal anti-dynamin antibodies that have been conjugated with donor or acceptor florophores. In one embodiment of the invention, Alexa-488 is used as the donor florophore and Alexa-568 is used as the acceptor florophore. In yet another embodiment the donor florophore is dynamin conjugated enhanced-cyan fluorescence protein (ECFP) and the acceptor is dynamin conjugated enhanced yellow-fluorescence protein (EYFP). It will be appreciated by the person of ordinary skill in the art that numerous combinations of FRET donor and acceptors can be used, which are readily available and known. In one embodiment, the FLIM assay is carried out in COS cells and the donor can be selected from the list consisting of: ECFP-WT, ECFP-1690K, ECFP-K44A, ECFP-K694A, and the -acceptor can be selected from the list consisting of: EYFP, EYFP-WT, EYFP-K44A, EYFP-1690K, EYFP-K694A. In yet another embodiment the FLIM assay is performed in podocytes and the donor is GTPase-Alexa488 and the acceptor is selected from the list consisting of: DAM-Alexa568, GTPase-Alexa568, and Hudyl-Alexa568. Cells are stained by mixing both donor and acceptor florophores in equal amounts, and examining the spatially-restricted lifetime shortening in cells detects the localization of dynamin-dynamin interactions in cells. Since dynamin-dynamin interactions are vital for the function of the podocyte, it will be appreciated by the person of ordinary skill in the art that this assay can now be used to screen peptides, small molecules or drugs which can affect these molecular interactions. For example such molecules are cytocholasin D, jasplakinolide, colchisine, dynK44A, dynK694A, dynWT, dynI690K, dynR725A (SEQ ID NO.4), dynL356Q, G358V, (SEQ ID NO.3) any combination thereof, etc.
In order to test the hypothesis that self-assembly of dynamin was protecting its cathepsin L processing in cultured podocytes, dynamin self-assembly in live cells was examined using fluorescence lifetime imaging microscopy (FLIM). FLIM is based on the fluorescence resonance energy transfer (FRET) between the donor and the acceptor that shortens the lifetime of the donor if the acceptor distance is within ≈100 Å (10 nm). […] A FLIM-assay was developed that specifically detects dynamin self-assembly into the higher order structures in podocytes. The assay is based on overexpressing dynamin in podocytes, and subsequently staining fixed cells with monoclonal anti-dynamin antibodies that have been conjugated with either Alexa-488 (donor florophore) or Alexa-568 (acceptor florophore). Cells are stained by mixing both florophores in equal amounts, and examining lifetime of Alexa-488. […] Importantly, FRET only occurred in the vicinity of the membrane. […] Thus, both dominant activating mutants, dynK694A and dynR725A, are impaired for assembly into a supramolecular structures in podocytes under normal conditions. […] Loss of FRET measured FLIM correlates with the loss of p40 proteolytic fragment in cultured podocytes. And presence of p40 in cells expressing dynR725A under normal conditions correlates with the lack of dynR725A assembly detected by FLIM. The opposite is true for the dynWT; lack of p40 under control conditions when FLIM is present, and appearance of the p40 upon LPS treatment with no measurable FRET. […] Finally, proteolytic processing of dynamin after LPS treatment is also observed in vivo. […]

In assay [2] the test system is dynamin-dynamin interactions. Kind of assay: FLIM analysis of dynamin-dynamin interactions in live COS cells. Type of assay: cell-based. The note with it: for dynamin-dynamin interactions measured by FLIM, in words: COS cells pre-treated; for Mean Lifetime (γ1) ps: Table 3. The text has this: FLIM is based on the fluorescence resonance energy transfer (FRET) between the donor and acceptor that shortens the lifetime of the donor if the acceptor distance is within ≈100 Å (10 nm). […] To this end, dynamin was tagged with either ECFP or EYFP on its N- and C-termini. Fusion proteins were expressed in COS cells, because these cells are flattened and have minimal background autofluorescence, which allows clear visualization of cells by wide-field microscopy.
The observed decrease in fluorescence lifetime of CFP-dynamin in cells expressing EYFP-dynamin could result from interactions between dynamin monomers within tetramers/dimers, or from interactions between assembled tetramers/dimmers into higher order structures (FIG. 8C). To distinguish these two possibilities, we used FLIM to examine dynI690K. […] The longer average lifetimes of dynI690K than dynwt argue strongly that the assay detects higher order dynamin self-assembly and not tetramer formation.

The mark [3] stands for this setting: donor CFP-WT, acceptor YFP-WT, cells treated with the substance.

For the molecule `C/C1=C\[C@H](C)C[C@H](C)OC(=O)C[C@H](c2ccc(O)cc2)NC(=O)[C@@H](Cc2c(Br)[nH]c3ccccc23)N(C)C(=O)[C@H](C)NC(=O)[C@@H](C)C1` [Jaspl., jasplakinolide, reference compound], the “Mean Lifetime (γ1)” value in assay [1] (Table 4, donor GTPase-a488, acceptor Hudy1-a568, in ps) came out at 2254 ± 58. Further, the “dynamin self-assembly by FLIM, in words” value in assay [1] is “did not effect dynamin self-assembly at the membrane”. Further, the “dynamin-dynamin interactions measured by FLIM, in words” value in assay [2] is “had no effect”. The “Mean Lifetime (γ1) ps” value in assay [2] (setting [3]) came out at 845 ± 263 ps.

`C=C1[C@@H](C)[C@H]2[C@H](Cc3ccccc3)NC(=O)[C@]23[C@H](OC(C)=O)/C=C/[C@@](C)(O)C(=O)[C@@H](C)C/C=C/[C@H]3[C@@H]1O` [Cyto. D, cytochalasin D]: the “dynamin self-assembly by FLIM, in words” value in assay [1] is “decrease in the lifetime of alexa 488 is detected through the cytoplasm”. Besides, the “dynamin-dynamin interactions measured by FLIM, in words” value in assay [2] is reported as “significantly promoted dynamin-dynamin interactions”. Also, in assay [2] (setting [3]), the “Mean Lifetime (γ1) ps” value was 510 ± 29 ps.

B1: CFP-1690K: dynI690K tagged with ECFP (protein)
chain: MGNRGMEDLIPLVNRLQDAFSAIGQNADLDLPQIAVVGGQSAGKSSVLENFVGRDFLPRGSGIVTRRPLVLQLVNATTEYAEFLHCKGKKFTDFEEVRLEIEAETDRVTGTNKGISPVPINLRVYSPHVLNLTLVDLPGMTKVPVGDQPPDIEFQIRDMLMQFVTKENCLILAVSPANSDLANSDALKVAKEVDPQGQRTIGVITKLDLMDEGTDARDVLENKLLPLRRGYIGVVNRSQKDIDGKKDITAALAAERKFFLSHPSYRHLADRMGTPYLQKVLNQQLTNHIRDTLPGLRNKLQSQLLSIEKEVEEYKNFRPDDPARKTKALLQMVQQFAVDFEKRIEGSGDQIDTYELSGGARINRIFHERFPFELVKMEFDEKELRREISYAIKNIHGIRTGLFTPDMAFETIVKKQVKKIREPCLKCVDMVISELISTVRQCTKKLQQYPRLREEMERIVTTHIREREGRTKEQVMLLIDIELAYMNTNHEDFIGFANAQQRSNQMNKKKTSGNQDEILVIRKGWLTINNIGIMKGGSKEYWFVLTAENLSWYKDDEEKEKKYMLSVDNLKLRDVEKGFMSSKHIFALFNTEQRNVYKDYRQLELACETQEEVDSWKASFLRAGVYPERVGDKEKASETEENGSDSFMHSMDPQLERQVETIRNLVDSYMAIVNKTVRDLMPKTIMHLMKNNTKEFIFSELLANLYSCGDQNTLMEESAEQAQRRDEMLRMYHALKEALSIIGDINTTTVSTPMPPPVDDSWLQVQSVPAGRRSPTSSPTPQRRAPAVPPARPGSRGPAPGPPPAGSALGGAPPVPSRPGASPDPFGPPPQVPSRPNRAPPGVPSRSGQASPSRPESPRPPFDL
modifications: left off: large carriers
notes: dynI690K tagged with ECFP
As to B1, the “Mean Lifetime (γ1) ps” value in assay [2] (acceptor YFP not fused to dynamin) is given as 1838 ± 309 ps; in assay [2] (donor alone, no acceptor), 2292 ± 297 ps.

B2: CFP-K44A: dynK44A tagged with ECFP (protein)
chain: MGNRGMEDLIPLVNRLQDAFSAIGQNADLDLPQIAVVGGQSAGASSVLENFVGRDFLPRGSGIVTRRPLVLQLVNATTEYAEFLHCKGKKFTDFEEVRLEIEAETDRVTGTNKGISPVPINLRVYSPHVLNLTLVDLPGMTKVPVGDQPPDIEFQIRDMLMQFVTKENCLILAVSPANSDLANSDALKVAKEVDPQGQRTIGVITKLDLMDEGTDARDVLENKLLPLRRGYIGVVNRSQKDIDGKKDITAALAAERKFFLSHPSYRHLADRMGTPYLQKVLNQQLTNHIRDTLPGLRNKLQSQLLSIEKEVEEYKNFRPDDPARKTKALLQMVQQFAVDFEKRIEGSGDQIDTYELSGGARINRIFHERFPFELVKMEFDEKELRREISYAIKNIHGIRTGLFTPDMAFETIVKKQVKKIREPCLKCVDMVISELISTVRQCTKKLQQYPRLREEMERIVTTHIREREGRTKEQVMLLIDIELAYMNTNHEDFIGFANAQQRSNQMNKKKTSGNQDEILVIRKGWLTINNIGIMKGGSKEYWFVLTAENLSWYKDDEEKEKKYMLSVDNLKLRDVEKGFMSSKHIFALFNTEQRNVYKDYRQLELACETQEEVDSWKASFLRAGVYPERVGDKEKASETEENGSDSFMHSMDPQLERQVETIRNLVDSYMAIVNKTVRDLMPKTIMHLMINNTKEFIFSELLANLYSCGDQNTLMEESAEQAQRRDEMLRMYHALKEALSIIGDINTTTVSTPMPPPVDDSWLQVQSVPAGRRSPTSSPTPQRRAPAVPPARPGSRGPAPGPPPAGSALGGAPPVPSRPGASPDPFGPPPQVPSRPNRAPPGVPSRSGQASPSRPESPRPPFDL
modifications: left off: large carriers
notes: dynK44A tagged with ECFP
On to B2, for which, in assay [2] (acceptor YFP fused to the same dynamin variant), the “Mean Lifetime (γ1) ps” value was 1858 ± 187 ps.
